# Laboratory results from PubChem BioAssay (NCI).
#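 Exposure lasted 48 hours, with cells grown in 96-well plates and compounds tested at five concentrations. TGI: total growth inhibition.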
# What was measured:
# Assay in all cases: inhibition of tumour cell growth, NCI panel, 48 h
# [1] = test system: OVCAR-8 ovarian
# [2] = test system: LOX IMVI melanoma
# [3] = test system: SK-MEL-28 melanoma
# [4] = test system: HS 578T breast
# [5] = test system: EKVX NSCLC
# [6] = test system: MALME-3M melanoma
# [7] = test system: TK-10 renal
# [8] = test system: UACC-257 melanoma
# [9] = test system: PC-3 prostate
# [10] = test system: CCRF-CEM leukemia
# [11] = test system: HCT-116 colon
# [12] = test system: SW-620 colon
# [13] = test system: NCI/ADR-RES ovarian
# [14] = test system: MDA-MB-231 breast
# [15] = test system: HOP-92 NSCLC
# [16] = test system: NCI-H460 lung
# [17] = test system: SF-539 CNS
# [18] = test system: M14 melanoma
# [19] = test system: NCI-H23 lung
# [20] = test system: HT29 colon
# [21] = test system: A498 renal
# [22] = test system: SR leukemia
# [23] = test system: IGROV1 ovarian
# [24] = test system: NCI-H226 lung
# [25] = test system: HCT-15 colon
# [26] = test system: A549 NSCLC
# [27] = test system: SN12C renal
# [28] = test system: T-47D breast
# [29] = test system: MDA-MB-435
# [30] = test system: RXF 393 renal
# [31] = test system: COLO 205 colon
# [32] = test system: ACHN renal
# [33] = test system: UACC-62 melanoma
# [34] = test system: RPMI-8226 leukemia
# [35] = test system: SF-268 CNS
# [36] = test system: SK-MEL-2 melanoma
# [37] = test system: NCI-H522 lung
# [38] = test system: MOLT-4 leukemia
# [39] = test system: BT-549 breast
# [40] = test system: HCC-2998 colon
# [41] = test system: SK-MEL-5 melanoma
# [42] = test system: 786-0 renal
# [43] = test system: SNB-75 CNS
# [44] = test system: MCF7 breast
# [45] = test system: K-562 leukemia
# [46] = test system: U251 CNS
# [47] = test system: SNB-19 CNS
# [48] = test system: HL-60(TB) leukemia
# [49] = test system: OVCAR-5 ovarian
# [50] = test system: OVCAR-4 ovarian
# [51] = test system: UO-31 renal
# [52] = test system: MDA-N
# [53] = test system: CAKI-1 renal
# [54] = test system: DU-145 prostate
# [55] = test system: KM12 colon
# [56] = test system: OVCAR-3 ovarian
# [57] = test system: SF-295 CNS
# [58] = test system: SK-OV-3 ovarian
# [59] = test system: HOP-62 NSCLC
structure (smiles),measurement,setting,value
COc1ccc(/C=C/C2=NN(c3cccc(S(=O)(=O)O)c3)C3(C2)SCC(=O)N3c2nc3ccccc3s2)cc1 (stereo not drawn),TGI,[1],> 100 µM
same,TGI,[2],> 100 µM
same,TGI,[3],> 100 µM
same,TGI,[4],> 100 µM
same,TGI,[5],> 100 µM
same,TGI,[6],> 100 µM
same,TGI,[7],> 100 µM
same,TGI,[8],> 100 µM
same,TGI,[9],> 100 µM
same,TGI,[10],77.5 µM
same,TGI,[11],> 100 µM
same,TGI,[12],> 100 µM
same,TGI,[13],> 100 µM
same,TGI,[14],> 100 µM
same,TGI,[15],> 100 µM
same,TGI,[16],> 100 µM
same,TGI,[17],> 100 µM
same,TGI,[18],> 100 µM
same,TGI,[19],> 100 µM
same,TGI,[20],> 100 µM
same,TGI,[21],> 100 µM
same,TGI,[22],> 100 µM
same,TGI,[23],> 100 µM
same,TGI,[24],> 100 µM
same,TGI,[25],> 100 µM
same,TGI,[26],> 100 µM
same,TGI,[27],> 100 µM
same,TGI,[28],87.1 µM
same,TGI,[29],> 100 µM
same,TGI,[30],> 100 µM
same,TGI,[31],> 100 µM
same,TGI,[32],> 100 µM
same,TGI,[33],> 100 µM
same,TGI,[34],84.5 µM
same,TGI,[35],> 100 µM
same,TGI,[36],> 100 µM
same,TGI,[37],> 100 µM
same,TGI,[38],> 100 µM
same,TGI,[39],> 100 µM
same,TGI,[40],> 100 µM
same,TGI,[41],> 100 µM
same,TGI,[42],> 100 µM
same,TGI,[43],> 100 µM
same,TGI,[44],> 100 µM
same,TGI,[45],> 100 µM
same,TGI,[46],> 100 µM
same,TGI,[47],> 100 µM
same,TGI,[48],> 100 µM
same,TGI,[49],> 100 µM
same,TGI,[50],> 100 µM
same,TGI,[51],> 100 µM
same,TGI,[52],> 100 µM
same,TGI,[53],> 100 µM
same,TGI,[54],> 100 µM
same,TGI,[55],> 100 µM
COc1ccc(-n2sc3ncccc3c2=O)cc1,TGI,[1],70.3 µM
same,TGI,[2],> 100 µM
same,TGI,[3],44.3 µM
same,TGI,[4],62.8 µM
same,TGI,[5],28.4 µM
same,TGI,[6],30.9 µM
same,TGI,[7],33.5 µM
same,TGI,[8],34.2 µM
same,TGI,[9],53.5 µM
same,TGI,[10],> 100 µM
same,TGI,[11],32.6 µM
same,TGI,[12],79.6 µM
same,TGI,[56],60.8 µM
same,TGI,[13],59.6 µM
same,TGI,[14],45.1 µM
same,TGI,[15],58.6 µM
same,TGI,[16],> 100 µM
same,TGI,[57],> 100 µM
same,TGI,[17],37.7 µM
same,TGI,[18],41.3 µM
same,TGI,[19],36.8 µM
same,TGI,[20],43 µM
same,TGI,[22],55.1 µM
same,TGI,[23],61.2 µM
same,TGI,[24],> 100 µM
same,TGI,[25],44.2 µM
same,TGI,[26],> 100 µM
same,TGI,[27],91.3 µM
same,TGI,[28],44.1 µM
same,TGI,[29],66.7 µM
same,TGI,[31],35 µM
same,TGI,[32],34.5 µM
same,TGI,[33],> 100 µM
same,TGI,[58],> 100 µM
same,TGI,[34],> 100 µM
same,TGI,[35],58.3 µM
same,TGI,[36],> 100 µM
same,TGI,[37],46.4 µM
same,TGI,[38],> 100 µM
same,TGI,[39],38.6 µM
same,TGI,[40],> 100 µM
same,TGI,[41],44.6 µM
same,TGI,[42],32.3 µM
same,TGI,[43],51 µM
same,TGI,[44],49.1 µM
same,TGI,[46],44.6 µM
same,TGI,[47],> 100 µM
same,TGI,[48],41.5 µM
same,TGI,[49],64.2 µM
same,TGI,[50],> 100 µM
same,TGI,[59],56.7 µM
same,TGI,[51],33.7 µM
same,TGI,[52],40.7 µM
same,TGI,[54],> 100 µM
same,TGI,[55],34.5 µM
COc1cc(-c2ccccc2N)c2cccnc2c1OC,TGI,[2],15.3 µM
same,TGI,[3],32.8 µM
same,TGI,[4],11.9 µM
same,TGI,[5],13.8 µM
same,TGI,[6],30.4 µM
same,TGI,[7],23.7 µM
same,TGI,[8],24.8 µM
same,TGI,[9],22 µM
same,TGI,[10],22.5 µM
same,TGI,[11],11.9 µM
same,TGI,[12],17.4 µM
same,TGI,[56],16.1 µM
same,TGI,[13],35.9 µM
same,TGI,[14],20.6 µM
same,TGI,[15],22.3 µM
same,TGI,[16],43.4 µM
same,TGI,[57],7.18 µM
same,TGI,[17],21.6 µM
same,TGI,[18],19.3 µM
same,TGI,[19],19.6 µM
same,TGI,[20],16.3 µM
same,TGI,[21],27.2 µM
same,TGI,[22],7.25 µM
same,TGI,[23],11.1 µM
same,TGI,[24],26.6 µM
same,TGI,[25],16.1 µM
same,TGI,[26],16.1 µM
same,TGI,[27],17.3 µM
same,TGI,[28],13.7 µM
same,TGI,[29],21.1 µM
same,TGI,[30],34.6 µM
same,TGI,[31],22.1 µM
same,TGI,[32],15.2 µM
same,TGI,[33],24.2 µM
same,TGI,[58],21.9 µM
same,TGI,[34],14.8 µM
same,TGI,[35],12.8 µM
same,TGI,[36],26.5 µM
same,TGI,[37],17.9 µM
same,TGI,[38],7.94 µM
same,TGI,[39],22.2 µM
same,TGI,[41],26.3 µM
same,TGI,[42],14.9 µM
same,TGI,[44],18.3 µM
same,TGI,[45],20.5 µM
same,TGI,[46],17.7 µM
same,TGI,[47],18.6 µM
same,TGI,[48],16.5 µM
same,TGI,[50],19.6 µM
same,TGI,[59],19 µM
same,TGI,[51],15 µM
same,TGI,[52],20.2 µM
same,TGI,[53],10.2 µM
same,TGI,[54],10.5 µM
same,TGI,[55],24.3 µM
C[Si](C)(c1ccccc1)[C@H]1CCCC=C1CCNC1c2ccccc2CCc2ccccc21,TGI,[1],> 100 µM
same,TGI,[2],> 100 µM
same,TGI,[3],> 100 µM
same,TGI,[4],> 100 µM
same,TGI,[5],> 100 µM
same,TGI,[6],> 100 µM
same,TGI,[7],> 100 µM
same,TGI,[8],> 100 µM
same,TGI,[9],> 100 µM
same,TGI,[10],> 100 µM
same,TGI,[11],> 100 µM
same,TGI,[12],> 100 µM
same,TGI,[56],> 100 µM
same,TGI,[13],> 100 µM
same,TGI,[14],> 100 µM
same,TGI,[15],> 100 µM
same,TGI,[16],> 100 µM
same,TGI,[57],> 100 µM
same,TGI,[17],> 100 µM
same,TGI,[18],> 100 µM
same,TGI,[19],> 100 µM
same,TGI,[20],> 100 µM
same,TGI,[21],> 100 µM
same,TGI,[22],> 100 µM
same,TGI,[23],> 100 µM
same,TGI,[24],> 100 µM
same,TGI,[25],> 100 µM
same,TGI,[26],> 100 µM
same,TGI,[27],> 100 µM
same,TGI,[28],> 100 µM
same,TGI,[29],> 100 µM
same,TGI,[30],> 100 µM
same,TGI,[31],> 100 µM
same,TGI,[32],> 100 µM
same,TGI,[33],> 100 µM
same,TGI,[58],> 100 µM
same,TGI,[34],> 100 µM
same,TGI,[35],> 100 µM
same,TGI,[36],> 100 µM
same,TGI,[37],> 100 µM
same,TGI,[38],> 100 µM
same,TGI,[39],> 100 µM
same,TGI,[40],> 100 µM
same,TGI,[41],> 100 µM
same,TGI,[42],> 100 µM
same,TGI,[43],> 100 µM
same,TGI,[44],> 100 µM
same,TGI,[45],> 100 µM
same,TGI,[46],> 100 µM
same,TGI,[47],> 100 µM
same,TGI,[49],> 100 µM
same,TGI,[50],> 100 µM
same,TGI,[59],> 100 µM
same,TGI,[51],> 100 µM
same,TGI,[52],> 100 µM
same,TGI,[53],> 100 µM
same,TGI,[54],> 100 µM
same,TGI,[55],> 100 µM
